SMILES strings stand for the structures. Where a name gives a salt, the structure may show the parent alone.

Test [1] concerns the target EGFR L858R (Homo sapiens (Human), UniProt P00533, L858R). In words: Biochemical EGFR inhibition assay, EGFR L858R. Particulars: Caliper mobility shift; 1.0 mM ATP or ATP Km; read-out: Enz EGFR_L858R IC50.
Test [2] deals with EGFR (d746-750) (Homo sapiens (Human), UniProt P00533, DEL746-750). In words: Biochemical EGFR inhibition assay, EGFR (d746-750). The following applies: Caliper mobility shift; 1.0 mM ATP or ATP Km; read-out: Enz EGFR_Exon19-del746-750 IC50.
Sequence of EGFR (d746-750) (P00533 other isoform, or with tags, fused parts or gaps del 1-694/del 746-750 limits assumed): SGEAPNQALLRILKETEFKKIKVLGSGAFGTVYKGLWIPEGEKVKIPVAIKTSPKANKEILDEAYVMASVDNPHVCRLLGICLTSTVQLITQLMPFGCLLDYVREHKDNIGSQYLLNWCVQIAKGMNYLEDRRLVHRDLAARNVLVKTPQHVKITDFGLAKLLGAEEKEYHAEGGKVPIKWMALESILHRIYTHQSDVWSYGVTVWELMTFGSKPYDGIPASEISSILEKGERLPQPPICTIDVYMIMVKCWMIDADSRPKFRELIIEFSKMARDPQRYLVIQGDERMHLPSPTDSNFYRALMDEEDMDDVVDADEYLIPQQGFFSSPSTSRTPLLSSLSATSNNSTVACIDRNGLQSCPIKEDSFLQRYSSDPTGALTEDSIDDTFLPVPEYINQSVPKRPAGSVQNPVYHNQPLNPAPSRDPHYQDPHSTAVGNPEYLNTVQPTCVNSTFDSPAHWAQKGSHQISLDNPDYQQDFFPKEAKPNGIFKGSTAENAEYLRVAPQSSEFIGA
Test [3] addresses pEGFR (Tyr1068) in PC-9 cells (Ex19Del) (Homo sapiens (Human), UniProt P00533, DEL746-750). In words: PC-9 pEGFR AlphaLISA assay. The format is cell-based. The following applies: 4 hours incubation, p-EGFR (Tyr1068) AlphaLISA, read-out: Ext pEGFR_PC-9 Ex19Del IC50. Put shortly:
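Readout: AlphaLISA SureFire Ultra signal in cell lysates, with acceptor beads for 1.5-2 h and donor beads overnight at room temperature in the dark. Beforehand, unstimulated cells in 10% FBS medium received compounds (10 points, 4-fold steps) for 4 h at 37° C. IC50 came from percent inhibition curves.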

Sequence of EGFR L858R (P00533 25-1210 L858R): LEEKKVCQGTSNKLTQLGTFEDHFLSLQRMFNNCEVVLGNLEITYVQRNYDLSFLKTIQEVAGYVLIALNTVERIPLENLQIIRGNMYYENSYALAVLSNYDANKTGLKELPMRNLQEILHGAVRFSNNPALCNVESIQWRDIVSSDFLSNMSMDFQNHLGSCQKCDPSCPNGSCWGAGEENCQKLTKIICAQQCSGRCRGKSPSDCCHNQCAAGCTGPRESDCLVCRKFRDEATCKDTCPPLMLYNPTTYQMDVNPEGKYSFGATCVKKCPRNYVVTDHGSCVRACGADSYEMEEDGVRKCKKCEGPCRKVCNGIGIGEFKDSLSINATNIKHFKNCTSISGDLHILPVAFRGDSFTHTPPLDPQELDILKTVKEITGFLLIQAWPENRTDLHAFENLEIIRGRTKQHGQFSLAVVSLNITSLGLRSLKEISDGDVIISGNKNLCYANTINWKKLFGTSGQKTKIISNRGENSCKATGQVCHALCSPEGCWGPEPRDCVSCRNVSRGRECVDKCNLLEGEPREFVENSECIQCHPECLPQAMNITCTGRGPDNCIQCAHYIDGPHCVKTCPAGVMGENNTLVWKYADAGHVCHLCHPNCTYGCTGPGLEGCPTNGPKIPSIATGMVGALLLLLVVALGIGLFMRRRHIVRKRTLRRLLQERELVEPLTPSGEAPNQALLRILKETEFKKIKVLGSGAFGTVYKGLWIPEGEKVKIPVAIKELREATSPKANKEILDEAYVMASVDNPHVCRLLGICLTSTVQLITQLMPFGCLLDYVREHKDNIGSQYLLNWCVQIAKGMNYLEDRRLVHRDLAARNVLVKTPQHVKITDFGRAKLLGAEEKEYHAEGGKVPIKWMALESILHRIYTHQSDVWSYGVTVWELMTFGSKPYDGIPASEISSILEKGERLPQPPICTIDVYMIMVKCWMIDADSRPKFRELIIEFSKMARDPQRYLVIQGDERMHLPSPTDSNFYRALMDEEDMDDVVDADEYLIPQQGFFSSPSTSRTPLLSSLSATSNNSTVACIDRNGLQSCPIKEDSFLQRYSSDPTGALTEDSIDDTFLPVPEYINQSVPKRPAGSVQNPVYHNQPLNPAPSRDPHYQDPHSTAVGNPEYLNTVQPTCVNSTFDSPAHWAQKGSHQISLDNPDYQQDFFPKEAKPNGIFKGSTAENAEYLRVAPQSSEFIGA
Sequence of pEGFR (Tyr1068) in PC-9 cells (Ex19Del) (P00533 other isoform, or with tags, fused parts or gaps del 746-750): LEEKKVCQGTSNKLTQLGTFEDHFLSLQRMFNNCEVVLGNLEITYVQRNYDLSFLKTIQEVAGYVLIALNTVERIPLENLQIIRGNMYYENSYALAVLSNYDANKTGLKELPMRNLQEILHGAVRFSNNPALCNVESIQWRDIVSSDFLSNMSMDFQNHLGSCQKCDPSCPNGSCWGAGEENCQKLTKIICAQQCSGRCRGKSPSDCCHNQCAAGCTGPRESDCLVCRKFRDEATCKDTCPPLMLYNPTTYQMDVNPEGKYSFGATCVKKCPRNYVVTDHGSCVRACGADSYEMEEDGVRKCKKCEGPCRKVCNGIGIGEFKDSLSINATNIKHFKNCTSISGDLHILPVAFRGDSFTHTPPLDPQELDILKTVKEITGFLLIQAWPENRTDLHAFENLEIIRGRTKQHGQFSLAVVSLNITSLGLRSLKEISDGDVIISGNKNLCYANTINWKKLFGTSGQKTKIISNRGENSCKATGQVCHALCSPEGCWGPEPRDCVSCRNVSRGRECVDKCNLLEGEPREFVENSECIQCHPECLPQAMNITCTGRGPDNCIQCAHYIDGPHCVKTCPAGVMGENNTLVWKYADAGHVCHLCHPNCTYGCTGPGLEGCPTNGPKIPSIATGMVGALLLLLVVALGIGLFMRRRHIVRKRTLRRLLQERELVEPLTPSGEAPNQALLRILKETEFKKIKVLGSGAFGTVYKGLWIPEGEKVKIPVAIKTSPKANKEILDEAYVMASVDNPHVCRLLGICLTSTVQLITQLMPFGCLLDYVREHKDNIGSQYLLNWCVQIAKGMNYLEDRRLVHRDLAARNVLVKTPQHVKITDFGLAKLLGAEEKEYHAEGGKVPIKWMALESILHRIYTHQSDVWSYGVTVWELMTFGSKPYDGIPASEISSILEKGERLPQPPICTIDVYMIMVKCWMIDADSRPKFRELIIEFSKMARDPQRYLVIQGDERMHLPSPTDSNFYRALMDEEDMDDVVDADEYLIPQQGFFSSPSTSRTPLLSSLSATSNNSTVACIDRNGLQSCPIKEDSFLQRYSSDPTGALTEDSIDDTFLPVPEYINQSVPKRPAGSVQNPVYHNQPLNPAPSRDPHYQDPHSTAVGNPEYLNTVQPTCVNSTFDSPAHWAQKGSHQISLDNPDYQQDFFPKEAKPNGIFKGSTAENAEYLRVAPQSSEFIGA

Usually IC50 stands for the point on the concentration scale where inhibition reaches its midpoint. On to `COc1cc2ncnc(-c3cn(C)nc3-c3ccccc3)c2cc1NC(=O)C1(C(F)(F)F)CC1` [Example 349, N-(7-methoxy-4-(1-methyl-3-phenyl-1H-pyrazol-4-yl)quinazolin-6-yl)-1-(trifluoromethyl)cyclopropane-1-carboxamide], for which the IC50 in test [1] came to 2 nM; in test [2], 1 nM; in test [3], 3.5 nM.
The matching figures for `COc1cc2ncnc(-c3cn(C)nc3-c3ccccc3)c2nc1O[C@@H](C)c1cn(C)nn1` [Example 44, (S)-7-methoxy-6-(1-(1-methyl-1H-1,2,3-triazol-4-yl)ethoxy)-4-(1-methyl-3-phenyl-1H-pyrazol-4-yl)pyrido[3,2-d]pyrimidine]: 3.9 nM, 2.4 nM and 14.6 nM.
The matching figures for `CCOc1cc2ncnc(-c3cn(C)nc3-c3ccccc3)c2nc1N1CC2(COC2)C1` [Example 175, 6-(7-ethoxy-4-(1-methyl-3-phenyl-1H-pyrazol-4-yl)pyrido[3,2-d]pyrimidin-6-yl)-2-oxa-6-azaspiro[3.3]heptane]: 1.6 nM, 1 nM and 1.2 nM.
Regarding `COc1cc2ncnc(-c3cn(C)nc3-c3ccccc3F)c2cc1NC(=O)[C@@]12C[C@@H]1CN(C)C2` (single isomer, unassigned) [Example 254, (1S,5S)—N-(4-(3-(2-fluorophenyl)-1-methyl-1H-pyrazol-4-yl)-7-methoxyquinazolin-6-yl)-3-methyl-3-azabicyclo[3.1.0]hexane-1-carboxamide or (1R,5R)—N-(4-(3-(2-fluorophenyl)-1-methyl-1H-pyrazol-4-yl)-7-methoxyquinazolin-6-yl)-3-methyl-3-azabicyclo[3.1.0]hexane-1-carboxamide], the half-maximal inhibitory concentration (IC50) in test [1] stood at 2.1 nM; in test [2], 0.8 nM; in test [3] it was 2.5 nM.
Taken in the same sequence, the figures for `COc1cc2ncnc(-c3cn(CC(F)F)nc3-c3ccccc3)c2cc1[C@H](C)O` (single isomer, unassigned) [Example 101, (S)-1-(4-(1-(2,2-difluoroethyl)-3-phenyl-1H-pyrazol-4-yl)-7-methoxyquinazolin-6-yl)ethan-1-ol or (R)-1-(4-(1-(2,2-difluoroethyl)-3-phenyl-1H-pyrazol-4-yl)-7-methoxyquinazolin-6-yl)ethan-1-ol] were 3.2 nM, 1.9 nM and 5.7 nM.
Taken in the same sequence, the figures for `COc1cc2ncnc(-c3cn(C)nc3-c3ccccc3)c2cc1NC(=O)C1CCN1` (stereo not drawn) [Example 228, N-(7-methoxy-4-(1-methyl-3-phenyl-1H-pyrazol-4-yl)quinazolin-6-yl)azetidine-2-carboxamide] were 2.8 nM, 1.7 nM and 5.6 nM.
Taken in the same sequence, the figures for `COc1cc2ncnc(-c3cn(C)nc3-c3ccccc3)c2cc1NC(=O)C12CC(N(C)C)(C1)C2` [Example 341, 3-(dimethylamino)-N-(7-methoxy-4-(1-methyl-3-phenyl-1H-pyrazol-4-yl)quinazolin-6-yl)bicyclo[1.1.1]pentane-1-carboxamide trifluoroacetate] were 6.4 nM, 3 nM and 8.3 nM.
On to `COc1cc2ncnc(-c3cn(C)nc3-c3ccccc3)c2cc1NC(=O)c1scnc1C` [Example 207, N-(7-methoxy-4-(1-methyl-3-phenyl-1H-pyrazol-4-yl)quinazolin-6-yl)-4-methylthiazole-5-carboxamide], for which the IC50 in test [1] amounted to 1.4 nM; in test [2], 0.8 nM; in test [3], 1 nM.
The matching figures for `CCOc1cc2ncnc(-c3cn(C)nc3-c3ccccc3)c2nc1NC(=O)C12CC(C1)C2` [Example 311, N-(7-ethoxy-4-(1-methyl-3-phenyl-1H-pyrazol-4-yl)pyrido[3,2-d]pyrimidin-6-yl)bicyclo[1.1.1]pentane-1-carboxamide]: 3.4 nM, 1.9 nM and 2.1 nM.
The matching figures for `COc1cc2ncnc(-c3cn(C)nc3-c3ccc(F)cc3)c2cc1NC(=O)c1scnc1C` [Example 304, N-(4-(3-(4-fluorophenyl)-1-methyl-1H-pyrazol-4-yl)-7-methoxyquinazolin-6-yl)-4-methylthiazole-5-carboxamide]: 1.8 nM, 1 nM and 1.2 nM.
The matching figures for `COc1cc2ncnc(-c3cn(C)nc3-c3ccccc3F)c2nc1NC(=O)C1(C(F)(F)F)CC1` [Example 317, N-(4-(3-(2-fluorophenyl)-1-methyl-1H-pyrazol-4-yl)-7-methoxypyrido[3,2-d]pyrimidin-6-yl)-1-(trifluoromethyl)cyclopropane-1-carboxamide]: 2.7 nM, 1.2 nM and 1.5 nM.
For the molecule `COc1cc2ncnc(-c3cn(C)nc3-c3ccccc3)c2cc1NC(=O)c1c(C)cccc1F` [Example 201, 2-fluoro-N-(7-methoxy-4-(1-methyl-3-phenyl-1H-pyrazol-4-yl)quinazolin-6-yl)-6-methylbenzamide], the half-maximal inhibitory concentration (IC50) in test [1] is 2 nM; in test [2], 1.4 nM; in test [3], 3.8 nM.
Taken in the same sequence, the figures for `COc1cc2ncnc(-c3cn(C4CC4)nc3-c3ccccc3)c2nc1NC(=O)c1cnn(C(F)(F)F)c1` [Example 365, N-(4-(1-cyclopropyl-3-phenyl-1H-pyrazol-4-yl)-7-methoxypyrido[3,2-d]pyrimidin-6-y1)-1-(trifluoromethyl)-1H-pyrazole-4-carboxamide] were 1.8 nM, 0.9 nM and 2 nM.
Taken in the same sequence, the figures for `COc1cc2ncnc(-c3cn(C)nc3-c3ccc(F)cc3)c2nc1NC(=O)[C@]12COC[C@H]1C2` (single isomer, unassigned) [Example 381, (1S,5S)—N-(4-(3-(4-fluorophenyl)-1-methyl-1H-pyrazol-4-yl)-7-methoxypyrido[3,2-d]pyrimidin-6-yl)-3-oxabicyclo[3.1.0]hexane-1-carboxamide or (1R,5R)—N-(4-(3-(4-fluorophenyl)-1-methyl-1H-pyrazol-4-yl)-7-methoxypyrido[3,2-d]pyrimidin-6-yl)-3-oxabicyclo[3.1.0]hexane-1-carboxamide] were 1.9 nM, 0.7 nM and 1.4 nM.
The matching figures for `COc1cc2ncnc(-c3cn(C)nc3-c3ccc(F)cc3F)c2cc1N1CCOCC1` [Example 166, 4-(4-(3-(2,4-difluorophenyl)-1-methyl-1H-pyrazol-4-yl)-7-methoxyquinazolin-6-yl)morpholine]: 1.7 nM, 0.7 nM and 3.2 nM.
For the molecule `COc1cc2ncnc(-c3cn(C)nc3-c3ccccc3)c2cc1NC(=O)c1ccccc1N1CCNCC1` [Example 227, N-(7-methoxy-4-(1-methyl-3-phenyl-1H-pyrazol-4-yl)quinazolin-6-yl)-2-(piperazin-1-yl)benzamide], the IC50 in test [1] was 15.2 nM; in test [2] it was 2.7 nM; in test [3] it was 6.7 nM.
Taken in the same sequence, the figures for `COc1cc2ncnc(-c3cn(CCO)nc3-c3ccccc3)c2nc1NC(=O)C12CC(C1)C2` [Example 414, N-(4-(1-(2-hydroxyethyl)-3-phenyl-1H-pyrazol-4-yl)-7-methoxypyrido[3,2-d]pyrimidin-6-yl)bicyclo[1.1.1]pentane-1-carboxamide] were 2.1 nM, 1.3 nM and 1.2 nM.

(Values after patent publication US20250236608A1, “EGFR INHIBITORS” (Blueprint Medicines Corporation, priority 2022, published 2025).)
